For one data set, the system named is CYP3A (hepatic). The data set is described as follows: Example 3: IV midazolam probe for CYP3A activity at a range of RTV doses. To be noted: human, plasma, iv, probe midazolam; for AUC(0-inf): AUCinf (mean); for clearance: CL (mean); for half-life: Half-life (mean). The method, then: (§1) The effects of a range of RTV doses (20, 50, 100, and 200 mg once daily) on hepatic cytochrome P450 3A (CYP3A) activity were also evaluated using a CYP3A substrate.
(§2) For MDZ: AUC0-last, AUCinf, % AUCexp, Clast, Tlast, λ, T1/2, CL and Vz.
(§3) The population mean slope was estimated along with a corresponding 90% CI. This study was performed in compliance with the guidelines of Good Clinical Practices (GCPs).

In data set [1] the test system is hepatic cytochrome P450 3A (CYP3A) activity. The description is as above. The method, then:
as §1, §2, §3

Data set [2] is described as follows: Example 1: pharmacokinetics of Compound 1 alone and with RTV in healthy subjects. The data set is classed as in vivo, human. From the text: The study was an open-label, fixed-sequence, crossover, pharmacokinetic study with 12 subjects. The subjects were healthy males and non-pregnant, nonlactating females between 18 and 45 years of age, inclusive. The duration of the study was 20 days, with Period 1 of Days 1 to 10 and Period 2 of days 11 to 20. Follow-up contact was on day 27.

The conditions of data set [3]: both, human, in vivo.
The nature of data set [4]: Example 3: pharmacokinetics of Compound 1 and RTV at a range of RTV doses. To be noted: RTV in plasma, mean (CV %); for AUC / Cmax / half-life: both, human; for AUC: AUCtau.
Data set [5] is described as follows: Example 5: drug-drug interaction of zidovudine and Compound 1/r. An excerpt:
(§4) Zidovudine is a NRTI used in HIV patients.
(§5) PK parameters were estimated using WinNonlin™ 5.0.1 (Pharsight Corporation, Mountain View, Calif., USA).

A short description of data set [6]: Example 5: safety of zidovudine and Compound 1/r. The format is in vivo, human.
Text: as §4, §5

Setting [7] is: plasma, oral, Compound 1 125 mg + 20 mg RTV QD.
Setting [8] is: plasma, oral, Compound 1 125 mg + 50 mg RTV QD.
Setting [9] is: plasma, oral, Compound 1 125 mg + 200 mg RTV QD.

As a reminder, the clearance is a measure of how efficiently the substance is removed, as volume per time. A higher clearance goes with efficient removal. As a reminder, the half-life is how long it takes for the measured level to halve. Take `Cc1ncc2n1-c1ccc(Cl)cc1C(c1ccccc1F)=NC2` [MDZ, midazolam]: the AUC(0-inf) in the data set on CYP3A (hepatic) (1 mg, MDZ 1 mg IV alone, Day 1) worked out at 31 ng·h/mL; in the data set on CYP3A (hepatic) (MDZ 1 mg IV, +20 mg RTV QD (with Compound 1 125 mg)), 101 ng·h/mL; in the data set with CYP3A (hepatic) (MDZ 1 mg IV, +50 mg RTV QD (with Compound 1 125 mg)), 145 ng·h/mL; in the data set with CYP3A (hepatic) (MDZ 1 mg IV, +100 mg RTV QD (with Compound 1 125 mg)), 219 ng·h/mL; in the data set with CYP3A (hepatic) (MDZ 1 mg IV, +200 mg RTV QD (with Compound 1 125 mg)), 146 ng·h/mL. In addition, the clearance with CYP3A (hepatic) (1 mg, MDZ 1 mg IV alone) was 7.45 mL/min/kg; with CYP3A (hepatic) (MDZ 1 mg IV, +20 mg RTV), 2.38 mL/min/kg; with CYP3A (hepatic) (MDZ 1 mg IV, +50 mg RTV) it was 1.5 mL/min/kg; in the data set on CYP3A (hepatic) (MDZ 1 mg IV, +100 mg RTV), 1.2 mL/min/kg; in the data set with CYP3A (hepatic) (MDZ 1 mg IV, +200 mg RTV), 1.45 mL/min/kg. For the same compound, the half-life in the data set on CYP3A (hepatic) (1 mg, MDZ 1 mg IV alone) is 238 min; with CYP3A (hepatic) (MDZ 1 mg IV, +20 mg RTV) it was 470 min; in the data set on CYP3A (hepatic) (MDZ 1 mg IV, +50 mg RTV) it was 864 min; with CYP3A (hepatic) (MDZ 1 mg IV, +100 mg RTV), 1340 min; with CYP3A (hepatic) (MDZ 1 mg IV, +200 mg RTV), 912 min. In addition, the “Clast (mean)” value in data set [1] (MDZ 1 mg IV alone) is 0.20 ng/mL; in data set [1] (MDZ 1 mg IV, +20 mg RTV), 1.53 ng/mL; in data set [1] (MDZ 1 mg IV, +50 mg RTV), 2.51 ng/mL; in data set [1] (MDZ 1 mg IV, +100 mg RTV), 3.34 ng/mL; in data set [1] (MDZ 1 mg IV, +200 mg RTV) it was 2.58 ng/mL.
A word on the AUC: it is concentration integrated over time. As usually defined, the Cmax is the maximum level reached in the sampled fluid or tissue. For `CC(C)c1nc(CN(C)C(=O)N[C@H](C(=O)N[C@@H](Cc2ccccc2)C[C@H](O)[C@H](Cc2ccccc2)NC(=O)OCc2cncs2)C(C)C)cs1` [Ritonavir, (2S,3S,5S)-5-(N-(N-((N-Methyl-N-((2-isopropyl-4-thiazolyl)methyl)amino)-carbonyl)-L-valinyl)amino)-2-(N-((5-thiazolyl)methoxycarbonyl)amino)-1,6-diphenyl-3-hydroxyhexane, reference compound], the half-life in data set [2] (both sexes, human, plasma, oral, 100 mg, ritonavir in plasma, Day 11, single dose RTV 100 mg with Compound 1, median) is 306 min; in data set [4] (setting [7]), 284 min; in data set [4] (setting [8]) it was 392 min; in data set [4] (plasma, oral, Compound 1 125 mg + 100 mg RTV QD), 380 min; in data set [4] (setting [9]) it was 343 min. The AUC(0-inf) in data set [2] (both sexes, human, plasma, oral, 100 mg, read-out: AUC (AUCinf)) is 4980 ng·h/mL. The area under the curve (AUC) came out at 9400 ng·h/mL in data set [2] (both sexes, human, plasma, oral, ritonavir in plasma, Day 20, RTV 100 mg + Compound 1 100 mg twice daily, mean, read-out: AUC (AUCtau)); 6550 ng·h/mL in data set [4] (in vivo, Compound 1 125 mg + 100 mg RTV QD); 135 ng·h/mL in data set [4] (setting [7]); 1120 ng·h/mL in data set [4] (setting [8]); 16000 ng·h/mL in data set [4] (setting [9]). In addition, the Ctau was 219.8 ng/mL in data set [2] (ritonavir in plasma, Day 11, single dose RTV 100 mg with Compound 1, mean); 544.8 ng/mL in data set [2] (ritonavir in plasma, Day 20, RTV 100 mg + Compound 1 100 mg twice daily, mean); 0.718 (98.8) ng/ml in data set [4] (Compound 1 125 mg + 20 mg RTV QD); 11.6 (66.2) ng/ml in data set [4] (Compound 1 125 mg + 50 mg RTV QD); 53.8 (41.6) ng/ml in data set [4] (Compound 1 125 mg + 100 mg RTV QD); 78.5 (36.7) ng/ml in data set [4] (Compound 1 125 mg + 200 mg RTV QD). In addition, the “Dose proportionality of RTV exposures” value in data set [3] was “RTV exposures not dose-proportional, very low exposures at 20 mg with BLQ concentrations (<0.5 ng/ml) by 16 hr in some subjects”. The results for the maximum concentration (Cmax) in data set [4] (setting [7]), in data set [4] (setting [8]) and in data set [4] (setting [9]) were 19.5 ng/mL, 130 ng/mL and 2460 ng/mL, respectively.
Take `Cc1cn([C@H]2C[C@H](N=[N+]=[N-])[C@@H](CO)O2)c(=O)[nH]c1=O` [ZDV, zidovudine]: the “AUCtau, Cmax, Ctau (Compound 1 only) 90% CI of GMR (co-administration: alone)” value in data set [5] (Compound 1/r 200/100 mg QD + ZDV 300 mg BID, with a meal, bounds 70% to 143%) is given as “within predefined PK equivalence bounds”. The Pharmacokinetic drug-drug interaction result in data set [5] (in vivo) is listed as “no clinically relevant pharmacokinetic drug-drug interaction”. For the same compound, in data set [6] (Compound 1/r 200/100 mg QD and ZDV 300 mg BID, alone and in combination), the Tolerability result is “generally well tolerated”. In addition, the Safety of co-administration result in data set [6] (zidovudine co-administered with Compound 1/r) was “safe and well tolerated”.

Values taken from patent publication US20070219243A1, “Method for improving the pharmacokinetics of HIV integrase inhibitors” (priority 2005, published 2007).
